Data as given in patent US11999726B2, “5-methyl-4-fluoro-thiazol-2-yl compounds” (Eli Lilly and Company, priority 2018, dated 2024).

Target: T1, human O-GlcNAc-β-N-acetylglucosaminidase (OGA) (Homo sapiens, UniProt O60502)
T1 construct: poly-histidine (HIS) tag (N); made in house; host or cells: Sf9 insect cells (Bac-to-Bac baculovirus, pFastBac1)
T1 sequence (O60502 1-916): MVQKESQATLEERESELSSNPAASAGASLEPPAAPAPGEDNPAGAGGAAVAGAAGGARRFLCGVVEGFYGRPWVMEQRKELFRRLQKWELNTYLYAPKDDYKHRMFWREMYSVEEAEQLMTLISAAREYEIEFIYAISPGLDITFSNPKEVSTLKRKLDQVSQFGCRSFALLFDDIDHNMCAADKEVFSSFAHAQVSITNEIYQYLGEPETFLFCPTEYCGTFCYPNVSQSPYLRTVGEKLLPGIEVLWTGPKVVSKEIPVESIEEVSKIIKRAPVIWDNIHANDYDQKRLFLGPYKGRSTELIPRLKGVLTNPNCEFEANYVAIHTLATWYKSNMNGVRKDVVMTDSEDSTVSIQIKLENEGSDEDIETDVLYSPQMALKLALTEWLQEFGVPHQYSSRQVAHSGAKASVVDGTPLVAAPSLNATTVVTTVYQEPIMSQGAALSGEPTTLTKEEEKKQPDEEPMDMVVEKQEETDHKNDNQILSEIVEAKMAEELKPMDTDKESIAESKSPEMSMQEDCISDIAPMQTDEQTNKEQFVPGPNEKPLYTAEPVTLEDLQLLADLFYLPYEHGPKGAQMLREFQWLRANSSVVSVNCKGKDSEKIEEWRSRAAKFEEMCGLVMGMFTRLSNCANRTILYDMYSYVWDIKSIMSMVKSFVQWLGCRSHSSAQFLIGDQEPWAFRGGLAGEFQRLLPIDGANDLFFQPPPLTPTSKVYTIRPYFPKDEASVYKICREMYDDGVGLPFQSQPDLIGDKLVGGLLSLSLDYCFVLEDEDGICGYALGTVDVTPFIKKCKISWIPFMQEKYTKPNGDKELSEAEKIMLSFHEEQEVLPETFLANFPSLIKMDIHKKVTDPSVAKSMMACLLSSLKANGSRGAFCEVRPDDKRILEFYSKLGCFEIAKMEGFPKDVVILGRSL
Experiment: In Vitro Human OGA Enzyme Assay
Assay type: biochemical
Conditions: FD-GlcNAc substrate 6.7 μM; 30 min pre-incubation with OGA enzyme; 60 min at room temperature; pH 7; n=3
Experimental: In Vitro Human OGA Enzyme Assay
The nucleotide sequence encoding full-length human O-GlcNAc-β-N-acetylglucosaminidase (NM_012215) is inserted into pFastBac1 (Invitrogen) vector with an N-terminal poly-histidine (HIS) tag. Baculovirus generation is carried out according to the Bac-to-Bac Baculovirus Expression system (Invitrogen) protocol. Sf9 cells are infected at 1.5×10^6 cells/mL using 10 mL of P1 virus per Liter of culture and incubated at 28° C. for 48 hrs. Cells are spun down, rinsed with PBS and the pellets stored at −80° C. […]
Resin is then packed onto column and washed with 50 mM Tris, pH 8.0, 300 mM NaCl, 10% glycerol, 10 mM imidazole, 0.1% Triton™ X-100, 1 mM DTT, followed by 50 mM Tris, pH 8.0, 150 mM NaCl, 10 mM imidazole, 10% glycerol, 1 mM DTT. […] Fractions containing His-OGA are pooled and protein concentration measured with BCA ([…]).
The OGA enzyme catalyses the removal of O-GlcNAc from nucleocytoplasmic proteins. […] This fluorogenic substrate becomes fluorescent upon cleavage by OGA, so that the enzyme activity can be measured by the increase in fluorescence detected at 535 nm (excitation at 485 nm).
The assay buffer is prepared to give a final concentration of 50 mM […], 0.01% bovine serum albumin and 0.01% Triton™ X-100 in water, at pH 7. […] Then, without stopping the reaction, fluorescence is read. […]

CC(=O)Nc1nc(F)c(CN2CC[C@H](Oc3cnc(C#N)cn3)C[C@@H]2C)s1 [Example 1, N-[5-[[(2S,4S)-4-(5-cyanopyrazin-2-yl)oxy-2-methyl-1-piperidyl]methyl]-4-fluoro-thiazol-2-yl]acetamide]
IC50: 0.343 nM
